Results: patent US10092620B2, “Uses of cyclic peptides for treating and preventing atherosclerosis” (THE SCRIPPS RESEARCH INSTITUTE, priority 2013, dated 2018)
Non-standard residues stand in square brackets, D forms with d. Residues, ends and D or L forms follow the SMILES beside them.

Tests used:
[1] = body, liver and spleen weights, food and water intake; format: in vivo, mouse; conditions: oral ~25 mg/kg/day, 10 weeks, LDLr-null mice
Experimental: Body weight was measured weekly. Mice were weighed prior to fasting. Liver and spleen weights were determined at the end of treatment.

[2] = plasma concentration during oral administration in drinking water; format: in vivo; conditions: LDLr-null (LDLr−/−), mouse, orally in the drinking water at 25 mg/kg/day, limit of detection 1 μM
Description: We continued oral administration of the peptide to the animals for an additional eight weeks (ten weeks total for the study) to determine how the peptide would impact the development of atherosclerotic lesions (see FIG. 6 for treatment schedule). At the completion of the 10-week study, the total plasma cholesterol level in the peptide-treated animals was 30% lower than in control animals (FIG. 2c). Moreover, an analysis of the whole aorta lesion area and the aortic sinus lesion volume indicated reductions in atherosclerotic lesions of 26% and 50%, respectively (FIGS. 2c, d). […] When administered orally in the drinking water at 25 mg/kg/day, the plasma concentration of compound 1 was below the 1 μM limit of detection (data not shown).
LC-MS SIM quantitation of peptide concentration: Cyclic peptide concentrations were quantified by using reverse-phase HPLC coupled with mass spectrometry. The electrospray ionization mass spectrometry measurements were carried out in the positive ionization mode using a single quadrupole mass spectrometer (Hewlett Packard HP 1100 MSD series). […] For quantitative calibration, standard curves were established using mouse EDTA-anticoagulated plasma spiked with various concentrations of the peptide. […]

[3] = test system: HDL in human plasma; experiment: pre-beta HDL ELISA assay: remodeling HDL in human plasma in vitro; format: biochemical; conditions: pre-beta HDL ELISA
Experimental: First, various cyclic peptides, including the majority of compounds shown in FIG. 2, were assessed for activities for remodeling HDL in human plasma in vitro. Unlike western blot which was used to generate data shown in FIG. 2, here a pre-beta HDL ELISA assay was used to measure pre-beta HDL levels. Results from the assay are shown in Table 1, which lists the peptides in the order of their activities in remodeling HDL.

[4] = plasma liver enzyme activities (ALT, AST); format: in vivo, mouse; conditions: oral ~25 mg/kg/day, 10 weeks, LDLr-null mice
Experimental: Plasma liver enzyme activities: At the time of harvest (10 week), blood (˜0.5 mL) was collected after an overnight fast (14-16 h) by cardiac puncture into EDTA anti-coagulant coated tubes, and centrifuged at 4° C. for 10 min×5000 rpm. Plasma samples were stored at −80° C. until analysis. Plasma alanine aminotransferase (ALT) and aspartate aminotransferase (AST) concentrations were measured using Infinity ALT (GPT) and AST (GOT) liquid stable reagents, respectively, which is a colorimetric kinetic assay (Thermo Scientific). Assays were performed in accordance to the manufacturer's recommendations, adjusting the reagent volumes (20 μL plasma+200 μL reagent, 0.69-cm light pathlength of the solution in the well) for analysis of samples in 96-well flat bottom microplate format.

[5] = test system: LDLr-null mice; experiment: in vivo efficacy study: plasma total cholesterol in high-fat-fed LDLr-null mice; parameters: species or system mouse
Description: Encouraged by the above findings, we carried out a 2-week pilot study to determine the effect of 1 on plasma total cholesterol levels. As an animal model, we employed the LDLr-null mouse, which has a human-like lipoprotein profile and is a leading animal model for studying hypercholesterolemia and atherogenesis. Considering that the abiotic nature of cyclic D,L-α-peptides renders them highly resistant to proteolysis, we chose to conduct this pilot in vivo efficacy study via the more convenient oral route of administration. Thus, the cyclic D,L-α-peptide was administered orally in the drinking water for two weeks (each mouse drank ˜0.5 mg peptide per day, or ˜25 mg/kg/day) to mice maintained on a high-fat diet.
In vivo efficacy study: LDL receptor-null (LDLr^−/−) mice on a C57BL/6J background were initially purchased from Jackson Laboratories (Bar Harbor, Me.) and were bred in house. The mice were weaned at 4 weeks of age and were fed ad libitum a standard chow diet (Harlan Teklad 7019) until they were 10-weeks old, when they were switched to a high-fat Western diet (WD) containing 15.8% (wt/wt) fat, 1.25% (wt/wt) cholesterol, and no cholate (Harlan Teklad 94059). At the time that the WD was started, the test cyclic peptide was added to the drinking water at a high dose of 180 μM (200 μg/mL) or a low dose of 18 μM (20 μg/mL) and the mice (female, n=8 per dosing group) were continued on WD for 10 weeks. The lyophilized peptide was easily dissolved in PBS (pH 7.4) containing 1% sucrose, resulting in a clear solution. The drinking water solution was replaced with fresh solution every day. A control group of eight mice (female, n=8) were fed WD with vehicle (PBS with 1% sucrose) drinking water. The mice consumed approximately 2.5 mL of water per day per mouse, and there was no significant difference in water or food consumption between groups.
Effect of cyclic peptides on plasma total cholesterol: The mice were bled after two weeks of treatment and at the time of harvest (10 weeks). The blood (200 μL) was collected after an overnight fast (14-16 h) by retro-orbital puncture into a heparinized capillary tube at two weeks, or by cardiac puncture into EDTA anti-coagulant coated tubes at the time of harvest (10 weeks). Plasma was separated from whole blood immediately by centrifugation of the blood samples at 5000 rpm for 10 min at 4° C., and was then stored at −80° C. Plasma total cholesterol (TC) was measured using an enzymatic colorimetric method kit (Amplex® red cholesterol assay kit, No. A12216, Life Technologies) according to the manufacturer's instructions.
In addition, several peptides were administered orally to mice at a 35 mg/kg dose (unless otherwise noted) in the drinking water for two weeks. The female LDLr-null mice maintained on a high-fat diet were provided with peptide-treated 1% sucrose/PBS or 1% sucrose/PBS alone as the drinking water ad libitum. Cholesterol levels were then determined. The data are shown in FIG. 7 as a scatter plot along with mean±SD. p values were determined by the one-way ANOVA test with a post hoc Tukey-Kramer test.

## CC(C)C[C@@H]1NC(=O)[C@@H](Cc2c[nH]c3ccccc23)NC(=O)[C@H](CCCNC(=N)N)NC(=O)[C@@H](CCC(=O)O)NC(=O)[C@H](CCC(N)=O)NC(=O)[C@@H](CCC(=O)O)NC(=O)[C@H](CCCNC(=N)N)NC(=O)[C@@H](Cc2c[nH]c3ccccc23)NC1=O [SEQ ID NO:1, c[wLwReQeR]] (cyclo([dW]L[dW]R[dE]Q[dE]R))
[1]
  body weight, difference between groups: No differences
  food or water intake, difference between groups: No differences
  liver weight, difference between groups: No differences
  spleen weight, difference between groups: No differences
[2]
  level at time molar: < 1000 nM
[3]
  Pre-beta HDL generated (normalized level): 0.88
[4]
  liver enzyme ALT, difference between groups: No differences
  liver enzyme AST, difference between groups: No differences
[5]; 10-fold lower dose ~2.5 mg/kg/day in drinking water, after two weeks
  reduction in plasma cholesterol levels compared to control animals: 17%
[5]; oral in drinking water ~25 mg/kg/day, 2 weeks, female LDLr-null mice, high-fat diet
  reduction in total plasma cholesterol compared to control animals: 55%
[5]; oral in drinking water, LDLr-null mice, high-fat diet for 10 weeks, vs. controls
  reduction of total plasma cholesterol levels (overview statement): up to 55%
[5]; oral ~25 mg/kg/day, 10 weeks, LDLr-null mice, high-fat diet
  total plasma cholesterol level lower than in control animals: 30%
[5]; ~2.5 mg/kg/day in drinking water, completion of 10-week study
  plasma cholesterol vs control (in words): no significant differences
